| SMILES | melting point [°C] |
| --- | --- |
| Fc1ccc(N2CCNCC2)cc1 [1-(4-fluorophenyl)piperazine] | 32 |
| c1cc(N2CCNCC2)ccn1 [1-(4-pyridyl)piperazine] | 139 |
| CC(O)CN (configuration not stated) [1-Aminopropan-2-ol] | -2 |
| Clc1cccc2ccccc12 [1-Chloronaphthalene] | -21.5 |
| CCOCCOCCOCC [1-Ethoxy-2-(2-ethoxyethoxy)ethane] | -44 |
| C=C(C)C(=O)OC(O)CC (configuration not stated) [1-Hydroxypropyl methacrylate] | -58 |
| CCCCI [1-Iodobutane] | -103 |
| CCCCCCCCCCCCCCCCI [1-Iodohexadecane] | 22 |
| CCCI [1-Iodopropane] | -101 |
| S=C=Nc1cccc2ccccc12 [1-Isothiocyanatonaphthalene] | 58 |
| COCC(C)O (configuration not stated) [1-Methoxypropan-2-ol] | -97 |
| CNC(=O)Oc1cccc2ccccc12 [1-Naphthyl methylcarbamate] | 142 |
| O=[N+]([O-])c1cccc2ccccc12 [1-Nitronaphthalene] | 62 |
| CCCCCCCCCCN [1-aminodecane] | 16 |
| O=C1CCN(C(=O)c2ccccc2)CC1 [1-benzoyl-4-piperidone] | 55 |
| c1ccc(Cn2ccnc2)cc1 [1-benzylimidazole] | 71 |
| CC(C)(C)OC(=O)N1CCCCC1=O [1-boc-2-piperidone] | 36 |
| CC(C)(C)OC(=O)N1CCNCC1 [1-boc-piperazine] | 46 |
| ClCCBr [1-bromo-2-chloroethane] | -17 |
| CC(C)CCBr [1-bromo-3-methylbutane] | -112 |

Further lines, results first:

| melting point [°C] | SMILES |
| --- | --- |
| 73 | COc1ccc(C(=O)Cc2ccccc2)cc1OC [1-(3,4-Dimethoxyphenyl)-2-phenylethanone] |
| 183 | Nc1cccc(-n2ccccc2=O)c1 [1-(3-Aminophenyl)pyridin-2(1H)-one] |
| 139 | NCc1cccc2c(Br)cccc12 [1-(5-bromonaphthalen-1-yl)methanamine] |
| 89 | CS(=O)(=O)n1ccnc1 [1-(methylsulfonyl)imidazole] |
| 100 | CCC(C(=O)NC(=O)NC(C)=O)c1ccccc1 (configuration not stated) [1-Acetyl-3-(2-phenylbutyryl)urea] |
| 45 | O=[N+]([O-])c1cccc(Cl)c1 [1-Chloro-3-nitrobenzene] |
| 176 | O=[N+]([O-])c1ccc(I)cc1 [1-Iodo-4-nitrobenzene] |
| -68 | Cc1ccc(C(C)C)cc1 [1-Isopropyl-4-methylbenzene] |
| 38 | CC1(C(=O)O)CCCCC1 [1-Methylcyclohexanecarboxylic acid] |
| 85 | Cc1cccc2c1Cc1ccccc1-2 [1-Methylfluorene] |
| -22 | Cc1cccc2ccccc12 [1-Methylnaphthalene] |
| -5 | C=Cc1cccc([N+](=O)[O-])c1 [1-Nitro-3-vinylbenzene] |
| 250 | O=[N+]([O-])c1ccc(/N=N/c2c(O)ccc3ccccc23)cc1 [1-[(E)-(4-Nitrophenyl)diazenyl]-2-naphthol] |
| 10 | CC(=O)c1cccc2ccccc12 [1-acetylnaphthalene] |
| 208 | Nc1ccc(O)c2c1C(=O)c1ccccc1C2=O [1-amino-4-hydroxyanthraquinone] |
| 118 | Nc1ccc2ccc3cccc4ccc1c2c34 [1-aminopyrene] |
| 97 | N#CC1(O)CCN(Cc2ccccc2)CC1 [1-benzyl-4-cyano-4-hydroxypiperidine] |
| 47 | CC(C)(C)OC(=O)N1CCc2ccccc21 [1-boc-indoline] |
| -68 | CCc1ccccc1Br [1-bromo-2-ethylbenzene] |
| 10 | Brc1ccccc1I [1-bromo-2-iodobenzene] |
| 75 | Oc1ccc2ccccc2c1Br [1-bromo-2-naphthol] |
| 91 | Brc1ccc(I)cc1 [1-bromo-4-iodobenzene] |
